Experimental data taken from PMC6225253, “Chemical Constituents and Antidepressant-Like Effects in Ovariectomized Mice of the Ethanol Extract of Alternanthera philoxeroides” (Molecules : A Journal of Synthetic Chemistry and Natural …, 2018).

Tests used:
Type in all cases: in vivo
[1] = system: ovariectomized (OVX) mice; test: Serum 17β-estradiol level of OVX mice (electrochemiluminescence immunoassay); conditions: OVX mice + E2 1 μg/kg/day, oral, 8 weeks; mean ± SEM, n = 3–4
Protocol: (§1) The levels of serum 17β-estradiol were evaluated (after decapitation) by electrochemiluminescence immunoassay. […] The weight and volume of the uterus were determined as an index of estrogen receptors activation.
(§2) After a 3-day recovery period, the animals were divided into five groups: (1) sham, (2) ovariectomy (OVX), (3) ovariectomy + 1 μg/kg 17β-estradiol, (OVX + E2), (4) ovariectomy + 250 mg/kg of A. philoxeroides extract (OVX + AP250), and (5) ovariectomy + 500 mg/kg of A. philoxeroides extract (OVX + AP500). The sham and OVX control groups were orally administered distilled water 0.2 mL per mouse once daily for 8 weeks. 17β-Estradiol and A. philoxeroides extract were suspended in distilled water and orally administered 0.2 mL per mouse once daily for 8 weeks. To assess the effects of 17β-estradiol and A. philoxeroides extract in OVX mice, the drugs were administered 1 h before the behavioral tests. At the end of behavioral studies, the mice were anesthetized with pentobarbital sodium (Nembutal®) 60 mg/kg (i.p.). Thereafter, blood sera (1 mL) were collected by cardiac puncture and centrifuged (3000 rpm; 4 °C) for 15 min [53]. 17β-Estradiol and corticosterone levels were evaluated in the serum. […] Hippocampus and frontal cortex were collected for semi-quantitative reverse transcription-polymerase chain reaction (RT-PCR) assay. […]

[2] = system: HPA-axis (serum corticosterone); test: Serum corticosterone level of OVX mice (ELISA); conditions: extract 250 and 500 mg/kg/day, E2 1 µg/kg/day, p < 0.001 vs vehicle-treated OVX group
Protocol: The serum corticosterone was evaluated to clarify the feedback mechanism in the HPA-axis on the estrogen deprivation in the OVX mice. […] Serum corticosterone level was determined by corticosterone (CORT) ELISA kit (Assaypro LLC. St. Charles, MO, USA) and corticosterone was used as a standard, according to the previously described procedure. The serum of the sample 25 µL was added in 96-well microplates of ELISA kit and immediately added 25 µL of biotinylated corticosterone to each well. The 96-well microplates were gently mixed and incubated for 2 h at room temperature and then washed with 200 µL of wash buffer for five times and added 50 µL of streptavidin-peroxidase conjugate into each well before incubation for 30 minutes. Each well was washed with 200 µL of wash buffer for five times again and then added 50 µL of chromogen substrate and incubated for 20 minutes. The reaction was stopped by adding 50 µL of stop solution. The absorbance was immediately measured at 450 nm.

CREB and BDNF mRNAs = test: CREB and BDNF mRNA expression in hippocampus and frontal cortex (semi-quantitative RT-PCR); conditions: hippocampus and frontal cortex of OVX mice; extract 250 and 500 mg/kg/day, E2 1 μg/kg/day
From the text: After completing the behavioral analysis, mice were decapitated under anesthesia. Mouse cyclic AMP response element binding protein (CREB), brain-derived neurotrophic factor (BDNF), and β-actin mRNAs expression in hippocampus and frontal cortex were semi-quantified by RT-PCR as described previously. Total RNA was extracted from the tissues with TRIzol® (Thermo Fisher Scientific Inc., CA, USA) according to the manufacturer’s instructions. First-strand cDNA was synthesized with oligo (dT) primers and SuperScript III reverse transcriptase (Thermo Fischer Scientific Inc., California, USA). PCR amplification was carried out using gene-specific PCR primer sets as follows: β-actin: 5′-AACGGTCTCACGTCAGTGTA-3′ (sense) and 5′-GTGACAGCATTGCTTCTGTG-3′ (antisense); BDNF: 5′-GACAAGGCAACTTGGCCTAC-3′ (sense) and 5′-CCTGTCACACACGCTCAGCTC-3′ (antisense); and CREB: 5′-GAGGCAGCTTGAACAACAAC-3′ (sense) and 5′-TACCCAGGGAGGAGCAATAC-3′ (antisense). […] The amplified products were visualized, photographed under ultraviolet and semi-quantified by GeneSnap software (GSL Biotech, Chicago, IL, USA) and ImageJ software (National Institutes of Health, Bethesda, MD, USA). The relative mRNA expression (BDNF/β-actin and CREB/β-actin) in each treatment were calculated by comparing with the sham group.

uterus of OVX mice = test: Uterine weight and volume of OVX mice
Protocol: as §1
After a 3-day recovery period, the animals were divided into five groups: (1) sham, (2) ovariectomy (OVX), (3) ovariectomy + 1 μg/kg 17β-estradiol, (OVX + E2), (4) ovariectomy + 250 mg/kg of A. philoxeroides extract (OVX + AP250), and (5) ovariectomy + 500 mg/kg of A. philoxeroides extract (OVX + AP500). The sham and OVX control groups were orally administered distilled water 0.2 mL per mouse once daily for 8 weeks. 17β-Estradiol and A. philoxeroides extract were suspended in distilled water and orally administered 0.2 mL per mouse once daily for 8 weeks. To assess the effects of 17β-estradiol and A. philoxeroides extract in OVX mice, the drugs were administered 1 h before the behavioral tests. At the end of behavioral studies, the mice were anesthetized with pentobarbital sodium (Nembutal®) 60 mg/kg (i.p.). Thereafter, blood sera (1 mL) were collected by cardiac puncture and centrifuged (3000 rpm; 4 °C) for 15 min [53]. 17β-Estradiol and corticosterone levels were evaluated in the serum. Uteri were removed, trimmed of connective tissue and fat for measuring and weighing. Hippocampus and frontal cortex were collected for semi-quantitative reverse transcription-polymerase chain reaction (RT-PCR) assay. Both serum and all tissues were collected rapidly and kept at −80 °C for all experiments.

[3] = system: ovariectomized (OVX) mice; test: Tail suspension test (TST) in ovariectomized mice; conditions: oral once daily 8 weeks, E2 1 μg/kg/day, extract 250 and 500 mg/kg/day, vs vehicle-treated OVX group
Protocol: (§3) The depressive-like symptoms of the OVX mice were evaluated using FST and TST (Figure 2A,B).
as §2
The tail suspension test was used to assess the antidepressant effects of A. philoxeroides extract. […] The animal behavior was video-recorded for 6 min. […]

[4] = system: ovariectomized (OVX) mice; test: Forced swimming test (FST) in ovariectomized mice; conditions: oral once daily 8 weeks, E2 1 μg/kg/day, extract 250 and 500 mg/kg/day, vs vehicle-treated OVX group
Protocol: as §3, §2
The procedure was adapted from Vogel et al.. […] During a 6 min period, the total immobility time was recorded for the last 4 min.

[5] = OVX mice + E2 1 μg/kg/day, oral, 8 weeks, mean ± SEM

C[C@]12CC[C@@H]3c4ccc(O)cc4CC[C@H]3[C@@H]1CC[C@@H]2O [17β-estradiol]
17β-estradiol (serum) [1]: 24.81 ± 1.11 pg/mL | Serum corticosterone level (effect on HPA-axis) [2]: decreasing the serum corticosterone level | CREB and BDNF mRNA expression levels (CREB and BDNF mRNAs): reversible by 17β-estradiol treatment | Uterine Volume (uterus of OVX mice; [5]): 2.305 ± 0.02 ** cm^3/kg | Uterine Weight (uterus of OVX mice; [5]): 3.055 ± 0.04 g/kg | Effect on uterus weight and volume (uterus of OVX mice; OVX mice, extract 250 and 500 mg/kg/day, E2 1 µg/kg/day, vs vehicle-treated OVX): statistically significant effects on uterus weight and volume | Immobility time in TST [3]: significantly shorter immobility time | Immobility time in FST [4]: significantly shorter immobility time
